For 15 compounds, IC50 results are on record in patent publication US11739098B2 (BRISTOL-MYERS SQUIBB COMPANY, priority 2017, dated 2023).

Holding throughout (type): cell-based
One assay addresses T1, human TLR7 (Homo sapiens, UniProt Q9NYK1).
T1 construct: host or cells: HEK-Blue cells (HEK293-derived reporter line)
T1 sequence (Q9NYK1 27-1049): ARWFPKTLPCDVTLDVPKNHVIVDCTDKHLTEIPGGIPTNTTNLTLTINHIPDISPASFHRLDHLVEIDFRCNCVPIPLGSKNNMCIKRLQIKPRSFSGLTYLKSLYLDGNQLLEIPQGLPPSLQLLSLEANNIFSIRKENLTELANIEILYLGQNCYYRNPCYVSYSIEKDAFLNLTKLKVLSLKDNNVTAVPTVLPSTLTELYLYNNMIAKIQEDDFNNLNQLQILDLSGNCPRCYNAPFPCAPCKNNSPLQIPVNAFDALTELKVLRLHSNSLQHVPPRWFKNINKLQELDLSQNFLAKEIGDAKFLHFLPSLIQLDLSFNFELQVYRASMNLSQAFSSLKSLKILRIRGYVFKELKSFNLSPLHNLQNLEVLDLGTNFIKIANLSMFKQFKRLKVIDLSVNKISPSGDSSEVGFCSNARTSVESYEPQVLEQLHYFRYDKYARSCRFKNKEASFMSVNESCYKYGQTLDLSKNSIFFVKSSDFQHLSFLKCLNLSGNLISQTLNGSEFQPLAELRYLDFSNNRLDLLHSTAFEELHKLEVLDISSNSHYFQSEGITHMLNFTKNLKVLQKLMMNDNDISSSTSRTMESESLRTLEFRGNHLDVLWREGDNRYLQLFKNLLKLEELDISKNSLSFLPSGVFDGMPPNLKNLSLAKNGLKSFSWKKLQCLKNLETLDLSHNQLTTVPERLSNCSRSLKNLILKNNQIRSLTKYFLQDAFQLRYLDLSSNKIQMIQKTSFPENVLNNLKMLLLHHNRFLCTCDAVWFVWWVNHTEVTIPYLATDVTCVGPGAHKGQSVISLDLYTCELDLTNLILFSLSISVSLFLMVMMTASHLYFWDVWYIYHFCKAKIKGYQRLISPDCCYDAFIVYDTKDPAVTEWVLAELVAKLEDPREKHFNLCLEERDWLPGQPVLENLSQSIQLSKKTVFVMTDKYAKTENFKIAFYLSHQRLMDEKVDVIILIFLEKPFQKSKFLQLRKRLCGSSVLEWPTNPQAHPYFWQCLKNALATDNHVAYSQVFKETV
The assay is described as follows: TLR7 inhibition reporter assay (HEK-Blue cells, SEAP reporter, gardiquimod stimulation). Particulars: HEK-Blue cells overexpressing human TLR7, SEAP reporter, gardiquimod 7.5 μM. In short, it runs like this:
(§1)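 Read-out is SEAP activity in HEK-Blue detection medium after 22 h at 37 °C, converted to percent inhibition against agonist-plus-DMSO and reference-inhibitor controls. Cells saw compound (0.05 nM–50 μM, 30 min, room temperature) before gardiquimod 7.5 μM, R848 15.9 μM or ODN2006 5 nM for TLR7, TLR8 and TLR9, respectively.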
A general note: Reporter assays use an easily measured gene product as a stand-in for the process of interest.

A further assay has as its target T2, human TLR9 (Homo sapiens, UniProt Q9NR96).
T2 construct: host or cells: HEK-Blue cells (HEK293-derived reporter line)
T2 sequence (Q9NR96 26-1032): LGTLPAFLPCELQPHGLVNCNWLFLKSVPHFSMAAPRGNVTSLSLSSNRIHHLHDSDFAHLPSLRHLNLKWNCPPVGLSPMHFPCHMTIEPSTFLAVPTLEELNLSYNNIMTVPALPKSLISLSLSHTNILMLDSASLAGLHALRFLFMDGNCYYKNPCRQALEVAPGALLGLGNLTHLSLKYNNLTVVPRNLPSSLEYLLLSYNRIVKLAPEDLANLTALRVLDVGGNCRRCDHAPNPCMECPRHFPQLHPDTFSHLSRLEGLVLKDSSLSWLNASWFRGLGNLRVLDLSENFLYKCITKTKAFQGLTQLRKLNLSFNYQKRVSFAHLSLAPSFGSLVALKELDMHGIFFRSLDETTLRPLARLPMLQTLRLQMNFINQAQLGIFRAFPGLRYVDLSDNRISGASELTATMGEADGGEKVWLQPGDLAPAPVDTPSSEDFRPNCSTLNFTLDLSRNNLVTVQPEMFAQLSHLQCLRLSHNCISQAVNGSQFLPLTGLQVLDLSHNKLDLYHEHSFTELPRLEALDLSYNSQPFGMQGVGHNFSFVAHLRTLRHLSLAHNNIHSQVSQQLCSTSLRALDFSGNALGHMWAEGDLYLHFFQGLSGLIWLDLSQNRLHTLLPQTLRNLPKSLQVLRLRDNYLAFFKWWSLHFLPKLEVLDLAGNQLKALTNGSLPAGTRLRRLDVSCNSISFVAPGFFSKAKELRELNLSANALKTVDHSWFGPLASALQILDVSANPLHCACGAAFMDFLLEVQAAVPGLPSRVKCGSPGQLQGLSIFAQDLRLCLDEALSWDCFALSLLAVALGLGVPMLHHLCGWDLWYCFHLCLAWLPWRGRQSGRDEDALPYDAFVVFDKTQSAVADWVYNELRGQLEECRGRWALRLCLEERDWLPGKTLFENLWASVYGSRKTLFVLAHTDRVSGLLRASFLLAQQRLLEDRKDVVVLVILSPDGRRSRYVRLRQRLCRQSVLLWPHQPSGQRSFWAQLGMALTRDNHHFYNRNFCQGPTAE
The assay is described as follows: TLR9 inhibition reporter assay (HEK-Blue cells, SEAP reporter, ODN2006 stimulation). To be noted: HEK-Blue cells overexpressing human TLR9, SEAP reporter, ODN2006 5 nM. In outline: as §1

Another assay has as its target T3, human TLR8 (Homo sapiens, UniProt Q9NR97).
T3 construct: host or cells: HEK-Blue cells (HEK293-derived reporter line)
T3 sequence (Q9NR97 27-1041): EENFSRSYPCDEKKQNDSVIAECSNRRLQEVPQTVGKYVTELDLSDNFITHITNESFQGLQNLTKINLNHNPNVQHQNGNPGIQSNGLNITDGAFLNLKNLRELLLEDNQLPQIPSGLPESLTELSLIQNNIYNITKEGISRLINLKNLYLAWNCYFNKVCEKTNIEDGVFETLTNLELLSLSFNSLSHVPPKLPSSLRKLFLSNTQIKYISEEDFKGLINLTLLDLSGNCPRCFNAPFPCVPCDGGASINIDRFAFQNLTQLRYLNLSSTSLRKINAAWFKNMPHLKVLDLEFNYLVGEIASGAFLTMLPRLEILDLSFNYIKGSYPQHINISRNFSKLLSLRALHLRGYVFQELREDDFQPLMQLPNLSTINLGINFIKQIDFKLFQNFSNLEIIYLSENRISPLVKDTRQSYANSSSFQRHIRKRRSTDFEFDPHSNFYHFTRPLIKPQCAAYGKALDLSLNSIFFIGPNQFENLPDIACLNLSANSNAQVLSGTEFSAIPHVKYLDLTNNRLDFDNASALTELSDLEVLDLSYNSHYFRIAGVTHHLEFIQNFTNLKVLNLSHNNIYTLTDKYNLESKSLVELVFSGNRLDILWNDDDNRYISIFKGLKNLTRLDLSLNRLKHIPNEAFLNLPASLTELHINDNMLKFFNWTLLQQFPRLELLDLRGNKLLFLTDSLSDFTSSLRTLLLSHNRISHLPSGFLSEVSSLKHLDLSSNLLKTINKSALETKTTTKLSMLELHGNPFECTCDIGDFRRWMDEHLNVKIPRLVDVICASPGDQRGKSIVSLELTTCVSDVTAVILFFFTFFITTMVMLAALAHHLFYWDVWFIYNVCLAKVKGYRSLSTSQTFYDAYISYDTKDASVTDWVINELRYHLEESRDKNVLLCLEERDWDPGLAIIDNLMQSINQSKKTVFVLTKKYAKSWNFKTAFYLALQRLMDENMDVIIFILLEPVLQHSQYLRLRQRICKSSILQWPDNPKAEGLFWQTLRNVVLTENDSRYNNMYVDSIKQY
The assay is described as follows: TLR8 inhibition reporter assay (HEK-Blue cells, SEAP reporter, R848 stimulation). To be noted: HEK-Blue cells overexpressing human TLR8, SEAP reporter, R848 15.9 μM. In outline: as §1

Regarding `Cc1c(-c2ccnc3[nH]nc(C)c23)[nH]c2ccc(C3CCNCC3)cc12` [Example 218, 3-methyl-4-(3-methyl-5-(piperidin-4-yl)-1H-indol-2-yl)-1H-pyrazolo[3,4-b]pyridine], the values for the IC50 on human TLR7, at human TLR9 and against human TLR8 were under 100 nM, 100 to 1000 nM and under 100 nM, respectively.

On to `CCc1c[nH]c2nccc(-c3[nH]c4ccc(C5CCNCC5)cc4c3C)c12` [Example 219, 4-(3-methyl-5-(piperidin-4-yl)-1H-indol-2-yl)-3-ethyl-1H-pyrrolo[2,3-b]pyridine], for which the IC50 against human TLR7, on human TLR9 and on human TLR8 was 100 to 1000 nM in each case.

On to `CCc1c(-c2ccnc3[nH]cc(CC)c23)[nH]c2ccc(C3CCNCC3)cc12` [Example 220, 3-ethyl-4-(3-ethyl-5-(piperidin-4-yl)-1H-indol-2-yl)-1H-pyrrolo[2,3-b]pyridine], for which the IC50 (commonly the concentration needed to halve the response being measured) at human TLR7 lay within 100 to 1000 nM; against human TLR9 it was 1000 to 50000 nM; on human TLR8, 100 to 1000 nM.

Consider `CCc1c(-c2ccnc3[nH]cc(C(C)C)c23)[nH]c2ccc(C3CCNCC3)cc12` [Example 221, 4-(3-ethyl-5-(piperidin-4-yl)-1H-indol-2-yl)-3-isopropyl-1H-pyrrolo[2,3-b]pyridine], for which the figures for the IC50 on human TLR7, on human TLR9 and on human TLR8 were 100 to 1000 nM, 100 to 1000 nM and 1000 to 50000 nM, respectively.

On to `CCc1c[nH]c2nccc(-c3[nH]c4ccc(C5CCNCC5)cc4c3C(C)C)c12` [Example 222, 3-ethyl-4-(3-isopropyl-5-(piperidin-4-yl)-1H-indol-2-yl)-1H-pyrrolo[2,3-b]pyridine], for which the IC50 at human TLR7 was 100 to 1000 nM; against human TLR9, 1000 to 50000 nM; against human TLR8, under 100 nM.

With `Cc1c(-c2ccnc3[nH]cc(-c4ccccc4)c23)[nH]c2ccc(C3CCNCC3)cc12` [Example 223, 4-(3-methyl-5-(piperidin-4-yl)-1H-indol-2-yl)-3-phenyl-1H-pyrrolo[2,3-b]pyridine], the IC50 against human TLR7 lay in the range of 1000 to 50000 nM; against human TLR9 it was 100 to 1000 nM; against human TLR8, 1000 to 50000 nM.

With `CCc1c(-c2ccnc3[nH]nc(CC)c23)[nH]c2ccc(C3CCNCC3)cc12` [Example 224, 3-ethyl-4-(3-ethyl-5-(piperidin-4-yl)-1H-indol-2-yl)-1H-pyrazolo[3,4-b]pyridine], the IC50 on human TLR7 was 100 to 1000 nM; on human TLR9, 100 to 1000 nM; at human TLR8 it was under 100 nM.

As for `Cc1cc(-c2c[nH]c3nccc(-c4[nH]c5ccc(C6CCNCC6)cc5c4C)c23)n(C)n1` [Example 225, 3-(1,3-dimethyl-1H-pyrazol-5-yl)-4-(3-methyl-5-(piperidin-4-yl)-1H-indol-2-yl)-1H-pyrrolo[2,3-b]pyridine], the IC50 against human TLR7, against human TLR9 and on human TLR8 was 100 to 1000 nM in each case.

On to `CCc1c(-c2ccnc3[nH]nc(C)c23)[nH]c2ccc(C3CCNCC3)cc12` [Example 226, 4-(3-ethyl-5-(piperidin-4-yl)-1H-indol-2-yl)-3-methyl-1H-pyrazolo[3,4-b]pyridine], for which the IC50 was under 100 nM on human TLR7, 100 to 1000 nM on human TLR9 and under 100 nM on human TLR8.

With `Cc1n[nH]c2nccc(-c3[nH]c4ccc(C5CCNCC5)cc4c3C(C)C)c12` [Example 227, 4-(3-isopropyl-5-(piperidin-4-yl)-1H-indol-2-yl)-3-methyl-1H-pyrazolo[3,4-b]pyridine], the IC50 on human TLR7 is under 100 nM; at human TLR9, 100 to 1000 nM; against human TLR8 it was under 100 nM.

Turning to `CC(C)c1c(-c2cc(N)nc3[nH]cnc23)[nH]c2ccc(C3CCNCC3)cc12` [Example 228, 7-(3-isopropyl-5-(piperidin-4-yl)-1H-indol-2-yl)-3H-imidazo[4,5-b]pyridin-5-amine], the IC50 was under 100 nM against human TLR7, 100 to 1000 nM at human TLR9 and under 100 nM at human TLR8.

Take `CCc1c(-c2ccnc3[nH]ncc23)[nH]c2ccc(C3CCNCC3)cc12` [Example 229, 4-(3-ethyl-5-(piperidin-4-yl)-1H-indol-2-yl)-1H-pyrazolo[3,4-b]pyridine]: the results for the IC50 at human TLR7, against human TLR9 and at human TLR8 were under 100 nM, 100 to 1000 nM and under 100 nM, respectively.

As to `CC(C)c1c(-c2ccnc3[nH]ncc23)[nH]c2ccc(C3CCNCC3)cc12` [Example 230, 4-(3-isopropyl-5-(piperidin-4-yl)-1H-indol-2-yl)-1H-pyrazolo[3,4-b]pyridine], the IC50 at human TLR7 was under 100 nM; on human TLR9 it was 100 to 1000 nM; against human TLR8, under 100 nM.

Turning to `Cc1c(-c2ccnc3[nH]ncc23)[nH]c2ccc(C3CCNCC3)cc12` [Example 231, 4-(3-methyl-5-(piperidin-4-yl)-1H-indol-2-yl)-1H-pyrazolo[3,4-b]pyridine], the figures for the IC50 at human TLR7, on human TLR9 and against human TLR8 were 100 to 1000 nM, 1000 to 50000 nM and 100 to 1000 nM, respectively.

With `Cc1nc2c(-c3[nH]c4ccc(C5CCNCC5)cc4c3C)ccnc2[nH]1` [Example 232, 2-methyl-7-(3-methyl-5-(piperidin-4-yl)-1H-indol-2-yl)-3H-imidazo[4,5-b]pyridine], the IC50 lay within 1000 to 50000 nM against human TLR7, 100 to 1000 nM against human TLR9 and 1000 to 50000 nM on human TLR8.
